The target in this assay is T1, TLR7/NFKb HEK cells (Homo sapiens, UniProt Q9NYK1).
T1 construct: expressed in transfected cells; host or cells: HEK cells (TLR7/NFKb reporter line)
T1 sequence (Q9NYK1 27-1049): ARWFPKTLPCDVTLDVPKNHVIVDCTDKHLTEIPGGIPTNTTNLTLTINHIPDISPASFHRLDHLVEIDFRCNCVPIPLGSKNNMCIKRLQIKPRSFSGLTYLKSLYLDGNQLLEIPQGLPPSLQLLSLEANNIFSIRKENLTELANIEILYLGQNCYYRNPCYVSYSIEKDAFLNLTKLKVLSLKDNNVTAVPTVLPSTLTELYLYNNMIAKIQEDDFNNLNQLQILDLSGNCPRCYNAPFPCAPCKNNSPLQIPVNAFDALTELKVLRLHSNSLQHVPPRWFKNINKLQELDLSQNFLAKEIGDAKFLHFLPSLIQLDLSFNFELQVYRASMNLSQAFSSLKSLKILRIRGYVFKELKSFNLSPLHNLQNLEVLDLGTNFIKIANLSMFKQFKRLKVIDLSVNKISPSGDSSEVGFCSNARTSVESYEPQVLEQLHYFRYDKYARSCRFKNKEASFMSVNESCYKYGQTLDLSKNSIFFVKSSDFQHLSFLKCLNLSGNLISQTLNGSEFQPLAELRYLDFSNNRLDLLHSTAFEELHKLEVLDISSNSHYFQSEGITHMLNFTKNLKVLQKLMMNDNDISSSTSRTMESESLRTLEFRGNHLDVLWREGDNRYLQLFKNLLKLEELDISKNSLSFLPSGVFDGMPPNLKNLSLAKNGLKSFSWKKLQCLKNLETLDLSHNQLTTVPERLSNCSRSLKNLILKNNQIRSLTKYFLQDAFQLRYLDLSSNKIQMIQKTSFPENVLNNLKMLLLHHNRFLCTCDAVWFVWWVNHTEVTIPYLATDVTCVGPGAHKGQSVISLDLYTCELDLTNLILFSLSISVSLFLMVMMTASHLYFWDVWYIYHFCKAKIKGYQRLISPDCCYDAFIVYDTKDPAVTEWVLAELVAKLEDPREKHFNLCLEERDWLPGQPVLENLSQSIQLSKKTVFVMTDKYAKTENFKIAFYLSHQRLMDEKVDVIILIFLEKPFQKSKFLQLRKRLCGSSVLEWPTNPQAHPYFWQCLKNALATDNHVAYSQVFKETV
Nature of the assay: HEK Cell Assay (TLR7/NFKb reporter, Steady-Glo luciferase readout). The conditions noted are these: 30 min compound preincubation, then R*48 agonist for 5 hours, read-out: Potency. It is filed as cell-based. The method, boiled down: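 Steady-Glo luminescence after 5 h stimulation with R*48 agonist, following 30 min compound preincubation. Assay run in HEK cells carrying a TLR7/NFKb luciferase reporter, plated at 5000 cells/well and grown 24 h at 37° C (10% CO2) before treatment.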
On to `C[C@H]1C[C@@H](NC(=O)C(N)C2CC2)CN(c2ccc(C#N)c3nccnc23)C1` (stereo partly drawn) [Compound 268, 2-amino-N-[(3R,5S)-1-(8-cyanoquinoxalin-5-yl)-5-methylpiperidin-3-yl]-2-cyclopropylacetamide], for which the IC50 was under 1000 nM.

With `CC(C)[C@H](O)C(=O)N[C@@H]1C[C@H](C)CN(c2ccc(C#N)c3nccnc23)C1` [Compound 20, (S)—N-((3R,5S)-1-(8-cyanoquinoxalin-5-yl)-5-methylpiperidin-3-yl)-2-hydroxy-3-methylbutanamide], the IC50 was under 1000 nM.

On to `COCCN[C@@H]1C[C@H](C)CN(c2ccc(C#N)c3nccnc23)C1` [Compound 19, 8-((3R,5S)-3-(2-methoxyethylamino)-5-methylpiperidin-1-yl)quinoxaline-5-carbonitrile], for which the IC50 is under 1000 nM.

Take `C[C@H]1C[C@@H](NC(=O)C(O)C2CC2)CN(c2ccc(C(F)(F)F)c3ncccc23)C1` (single isomer, unassigned) [Compound 520]: the IC50 was under 1000 nM.

As to `CC(C(=O)N[C@@H]1C[C@H](C)CN(c2ccc(C(F)F)c3nccnc23)C1)N1CC(O)C1` (stereo partly drawn) [Compound 321, N-[(3R,5S)-1-[8-(difluoromethyl)quinoxalin-5-yl]-5-methylpiperidin-3-yl]-2-(3-hydroxyazetidin-1-yl)propanamide], the IC50 lay within 1000 to 10000 nM.

Consider `C[C@H]1C[C@@H](NC2CCC(O)CC2)CN(c2ccc(C#N)c3nccnc23)C1` (single isomer, unassigned) [Compound 135], for which the IC50 was under 1000 nM.

For the compound `C[C@H]1C[C@@H](NC(=O)CN2CCN(C)CC2)CN(c2ccc(C(F)(F)F)c3nccnc23)C1` [Compound 259, N-[(3R,5S)-5-methyl-1-[8-(trifluoromethyl)quinoxalin-5-yl]piperidin-3-yl]-2-(4-methylpiperazin-1-yl)acetamide], the IC50 was under 1000 nM.

As for `CC1(C)C[C@@H](NC(=O)CN2CCOCC2)CN(c2ccc(C#N)c3nccnc23)C1` [Compound 214, N-[(3R)-1-(8-cyanoquinoxalin-5-yl)-5,5-dimethylpiperidin-3-yl]-2-(morpholin-4-yl)acetamide], the IC50 lay in the range of 1000 to 10000 nM.

Regarding `C[C@H]1C[C@@H](N)CN(c2ccc(C#N)c3ncncc23)C1` [Compound 74, 5-((3R,5S)-3-Amino-5-methyl-piperidin-1-yl)-quinazoline-8-carbonitrile], the IC50 was under 1000 nM.

`C[C@H]1C[C@@H](NC(=O)CC2C3CC2CN(C)C3)CN(c2ccc(C#N)c3nccnc23)C1` (single isomer, unassigned) [Compound 358]: the IC50 was under 1000 nM.

As for `CC(C)[C@H](N)C(=O)N[C@@H]1C[C@H](C)CN(c2ccnc3nccnc23)C1` [Compound 105, (2S)-2-amino-3-methyl-N-[(3R,5S)-5-methyl-1-[pyrido[2,3-b]pyrazin-8-yl]piperidin-3-yl]butanamide], the IC50 is under 1000 nM.

On to `C[C@H]1C[C@@H](NC(=O)CN2CC(O)C2)CN(c2ccc(C(F)F)c3ncccc23)C1` [Compound 308, N-[(3R,5S)-1-[8-(difluoromethyl)quinolin-5-yl]-5-methylpiperidin-3-yl]-2-(3-hydroxyazetidin-1-yl)acetamide], for which the IC50 fell in the range of 1000 to 10000 nM.

With `C[C@H]1C[C@@H](NC(=O)C(N)C(F)(F)F)CN(c2c(F)cc(C#N)c3nccnc23)C1` (single isomer, unassigned) [Compound 345], the IC50 was over 10000 nM.

As to `C[C@H]1C[C@@H](NC2CCN(C)C2=O)CN(c2ccc(C(F)(F)F)c3ncccc23)C1` (single isomer, unassigned) [Compound 237], the IC50 was under 1000 nM.

As for `C[C@H]1C[C@@H](NC(=O)CN2CCN(C)CC2)CN(c2ccc(C#N)c3nccnc23)C1` [Compound 109, N-[(3R,5S)-1-(8-cyanoquinoxalin-5-yl)-5-methylpiperidin-3-yl]-2-(4-methylpiperazin-1-yl)acetamide], the IC50 was under 1000 nM.

For `C[C@H]1C[C@@H](NC(=O)COCC2CCCO2)CN(c2ccc(C#N)c3nccnc23)C1` (stereo partly drawn) [Compound 166, N-[(3R,5S)-1-(8-cyanoquinoxalin-5-yl)-5-methylpiperidin-3-yl]-2-(oxolan-2-ylmethoxy)acetamide], the IC50 is under 1000 nM.

For the compound `N#Cc1ccc(N2CCC(C(=O)NCCN3CCOCC3)CC2)c2cccnc12` [Compound 419, 1-(8-Cyano-quinolin-5-yl)-piperidine-4-carboxylic Acid (2-morpholin-4-yl-ethyl)-amide], the IC50 is 1000 to 10000 nM.

For the compound `CN1CCC(NC2CC(C(F)(F)F)CN(c3ccc(C#N)c4nccnc34)C2)C1=O` (single isomer, unassigned) [Compound 224], the IC50 was 1000 to 10000 nM.

Consider `C[C@H]1C[C@@H](NC(=O)C2CC(F)(F)C2)CN(c2ccc(C(F)F)c3nccnc23)C1` [Compound 329, N-[(3R,5S)-1-[8-(difluoromethyl)quinoxalin-5-yl]-5-methylpiperidin-3-yl]-3,3-difluorocyclobutane-1-carboxamide], for which the IC50 lay in the range of 1000 to 10000 nM.

For `CN(C)CC(=O)N[C@H]1C[C@@H](C(F)(F)F)CN(c2ccc(C#N)c3nccnc23)C1` (relative stereo) [Compound 222, cis-N-[1-(8-cyanoquinoxalin-5-yl)-5-(trifluoromethyl)piperidin-3-yl]-2-(dimethylamino)acetamide], the IC50 was under 1000 nM.

Regarding `Cc1ncc(N2C[C@@H](C)C[C@@H](NC(=O)CC3CN(C)C3)C2)c2cccnc12` [Compound 556, 2-(1-Methyl-azetidin-3-yl)-N-[(3R,5S)-5-methyl-1-(8-methyl-[1,7]naphthyridin-5-yl)-piperidin-3-yl]-acetamide], the IC50 fell in the range of 1000 to 10000 nM.

Consider `C[C@H]1C[C@@H](NC(=O)CC(O)C(C)(C)C)CN(c2ccnc3nccnc23)C1` (single isomer, unassigned) [Compound 148], for which the IC50 is over 10000 nM.

With `C[C@H]1C[C@@H](N)CN(c2ccc(C(F)(F)F)c3ncccc23)C1` [Compound 66, (3R,5S)-5-methyl-1-[8-(trifluoromethyl)quinolin-5-yl]piperidin-3-amine], the IC50 was under 1000 nM.

Regarding `C[C@@H]1CN(c2ccc(C#N)c3nccnc23)C[C@H](C)O1` [Compound 44, 8-((2R,6S)-2,6-dimethylmorpholino)quinoxaline-5-carbonitrile], the IC50 is under 1000 nM.

`CC(C)(C)OCC(=O)NCC1CCN(c2ccc(C#N)c3ncccc23)CC1` [Compound 412, 2-tert-Butoxy-N-[1-(8-cyano-quinolin-5-yl)-piperidin-4-ylmethyl]-acetamide]: the IC50 is over 10000 nM.

On to `CCN1CCC[C@H]1C(=O)NCC1CCN(c2ccc(C#N)c3ncccc23)CC1` [Compound 435, (S)-1-Ethyl-pyrrolidine-2-carboxylic Acid [1-(8-cyano-quinolin-5-yl)-piperidin-4-ylmethyl]-amide], for which the IC50 was under 1000 nM.

As to `C[C@H]1C[C@@H](NC(=O)Cn2cccn2)CN(c2ccnc3nccnc23)C1` [Compound 170, N-[(3R,5S)-5-methyl-1-[pyrido[2,3-b]pyrazin-8-yl]piperidin-3-yl]-2-(1H-pyrazol-1-yl)acetamidw], the IC50 was over 10000 nM.

As for `CC(C)[C@H](O)C(=O)NC1CC(C(F)(F)F)CN(c2ccc(C#N)c3ncccc23)C1` (single isomer, unassigned) [Compound 429], the IC50 is over 10000 nM.

On to `C[C@H]1C[C@@H](NC(=O)CC(C)(C)CN)CN(c2ccc(C(F)F)c3ncccc23)C1` [Compound 315, 4-amino-N-[(3R,5S)-1-[8-(difluoromethyl)quinolin-5-yl]-5-methylpiperidin-3-yl]-3,3-dimethylbutanamide], for which the IC50 was under 1000 nM.

On to `CCN(CC)CCNC(=O)C1CCN(c2ccc(C#N)c3nccnc23)CC1` [Compound 432, 1-(8-Cyano-quinoxalin-5-yl)-piperidine-4-carboxylic acid (2-diethylamino-ethyl)-amide], for which the IC50 was under 1000 nM.

With `Cc1ncc(N2C[C@@H](C)C[C@@H](NC(=O)CC3CN(C(=O)OC(C)(C)C)C3)C2)c2cccnc12` [Compound 557, 3-{[(3R,5S)-5-Methyl-1-(8-methyl-[1,7]naphthyridin-5-yl)-piperidin-3-ylcarbamoyl]-methyl}-azetidine-1-carboxylic Acid tert-butyl ester], the IC50 is 1000 to 10000 nM.

With `CN1CCC(CNC(=O)C2CN(c3ccc(C#N)c4ncccc34)CC(F)(F)C2)CC1` (single isomer, unassigned) [Compound 545], the IC50 was in the range of 1000 to 10000 nM.

These data come from patent US10947213B1 (Merck Patent GmbH, priority 2015, dated 2021).
